Laboratory results from article PMC10376254, “Phytochemical and Bioactivity Studies on Hedera helix L. (Ivy) Flower Pollen and Ivy Bee Pollen” (Antioxidants, 2023).
Entries after “also recorded” stand apart in the source; their conditions may differ. Marks after values point to notes of the source that are not given here.

Key:
[1] = HPTLC-DPPH• effect-directed analysis; details: 0.4 µg on plate for compounds; STS 20 mg/mL, 2 and 5 µL
Description: HPTLC analyses were dipped into DPPH solution (0.1%) for 3 s using a Chromatogram Immersion Device III (Camag). The plates were left to dry in the air in the dark and were documented under white light after 30 min. The compounds having antioxidant activity appeared as yellow bands on the purple background.
The image of the HPTLC plate captured at white light illumination after HPTLC-DPPH analyses was for image analyses converted to a different format using WinCATS software (Camag) and then converted to videodensitograms in fluorescence mode using VideoScan TLC/HPTLC Evaluation Software (Version 1.02.00) (Camag).

[2] = CUPRAC assay (cupric reducing antioxidant capacity); details: trolox equivalents, n = 3, average ± SD
Description: (§1) The antioxidant activities were expressed as mg of trolox equivalents (TE) per g of hydroalcoholic extract (TE/g hydroalcoholic extract).
The CUPRAC method [32] was applied. Copper (II) sulfate pentahydrate (10 mM, 85 µL), neocuproine (7.5 mM, 85 µL) ammonium acetate buffer solution (85 µL, pH 7) and water (51 µL) were inserted in each well of a 96-well microplate. Then, either 43 µL of the DSTSs or trolox standard solutions (3.125–200 μg/mL) or water as a blank were added into each well. After incubation at room temperature for 30 min, the absorbance was measured at 450 nm.

[3] = FRAP assay (ferric reducing antioxidant power); details: trolox equivalents, n = 3, average ± SD
Description: The same range of concentration (1–2.5 mg/mL) of DSTSs was applied for DPPH, FRAP, CUPRAC and ABTS assays. […] The antioxidant activities were expressed as mg of trolox equivalents (TE) per g of hydroalcoholic extract (TE/g hydroalcoholic extract).
FRAP solution was freshly prepared by mixing 1 volume of iron (III) chloride solution (2 × 10^−2 M), 1 volume of TPTZ solution (1 × 10^−2 M) and 10 volumes of sodium acetate buffer (pH 3.6) solution. FRAP solution (280 µL) and the DSTSs (20 µL) or trolox standard solutions (20 µL; 3.125–100 μg/mL) or water as a blank (20 µL) were added in separate wells of a 96-well microplate, and after 6 min the absorbance was measured at 593 nm [31].

ABTS assay = details: trolox equivalents, n = 3, average ± SD
Description: as §1
ABTS assay [33] was slightly modified and then applied. Equal volumes (20 µL) of the DSTSs, trolox standard solutions (6.25–100 μg/mL) or methanol (as a blank) were placed in separate wells of a 96-well microplate plate, and ABTS reagent (280 µL) was added. The absorbance was measured at 734 nm, after incubating the well plate for 6 min at room temperature.

xanthine oxidase (XO) [4] = biological target: T1, xanthine oxidase (XO) (Bos taurus, UniProt P80457); test: Xanthine oxidase inhibitory activity (spectrophotometric); format: biochemical; details: for XO inhibitory activity (in words): spectrophotometric assay, at the applied concentrations (0.01–1 mg/mL)
T1 construct: purchased Sigma-Aldrich (Steinheim, Germany)
Description: Half-maximal inhibitory concentration values (IC50) were calculated for superoxide radical scavenging and XO inhibitory activity. Inhibition values (%) were calculated based on absorbances (A) measured against blank solutions by using the following formula:Inhibition (%): (1 − (ASample − ASample Blank)/(AControl − AControl Blank)) × 100.
Sodium phosphate buffer (50 mM, pH 7.5, 75 µL) was placed in the wells of a 96-well microplate; this was followed by the DSTSs in different concentrations (25 µL); followed by freshly prepared XO solution (0.2 U/mL in phosphate buffer solution, 25 µL); followed by water (25 µL). Incubation of the reaction mixture at 37 °C for 15 min was followed by the addition of a substrate solution (0.15 mM xanthine, 50 µL) into the mixture and incubation at 37 °C for 30 min until the reaction was terminated by the addition of hydrochloric acid (0.5 M, 50 µL). Finally, the absorbance was measured at 290 nm against a blank, containing all reagents, except the enzyme solution.

[5] = Superoxide radical scavenging (SOD) activity (xanthine/XO/NBT); format: biochemical; details: for SOD Activity IC50: enzymatic xanthine/XO/NBT, 560 nm, n = 3, ± SD, N.d. = Not detected
Description: Half-maximal inhibitory concentration values (IC50) were calculated for superoxide radical scavenging and XO inhibitory activity. Inhibition values (%) were calculated based on absorbances (A) measured against blank solutions by using the following formula:Inhibition (%): (1 − (ASample − ASample Blank)/(AControl − AControl Blank)) × 100. (1)
SOD activity was performed as described in Ref. [27]. […] After incubation at 37 °C for 20 min the reaction was terminated by hydrochloric acid (0.6 M, 80 µL) and absorption was measured at 560 nm against a blank solution containing all reagents except XO.

[6] = DPPH• assay (spectrophotometric antioxidant activity); details: trolox equivalents, n = 3, average ± SD
Description: The same range of concentration (1–2.5 mg/mL) of DSTSs was applied for DPPH, FRAP, CUPRAC and ABTS assays. […] The antioxidant activities were expressed as mg of trolox equivalents (TE) per g of hydroalcoholic extract (TE/g hydroalcoholic extract). […] Inhibition values (%) were calculated based on absorbances (A) measured against blank solutions by using the following formula:Inhibition (%): (1 − (ASample − ASample Blank)/(AControl − AControl Blank)) × 100.
Equal volumes (20 μL) of the DSTSs, trolox standard solutions (3.125–100 μg/mL) and methanol (as a blank) were placed in separate wells of a 96-well microplate, which was followed by the addition of DPPH solution (0.1 mM, 280 μL) to each well. After incubation in the dark at room temperature for 30 min, the absorbance was measured at 530 nm [30].

xanthine oxidase (XO) [7] = test: HPTLC-xanthine oxidase inhibitory activity (bioautography); format: biochemical; details: for HPTLC-XO zone detection (XO inhibitors as white/yellow zones on purple background): 8 µg on plate for compounds, samples 50 mg/mL, 2 and 5 µL, documented 0–120 min
Description: HPTLC analyses was immersed into a derivatization chamber with a mixture of phosphate buffer solution (pH 7.6) containing EDTA (1 mM), NBT (1 mM) and XO (0.1 U/mL), and incubated at 37 °C for 30 min in the dark. After drying in the air, the HPTLC plate was dipped into a phosphate buffer solution containing xanthine (1.5 mM) and incubated at 37 °C for 30 min in the dark. After drying in the air, the HPTLC plate was documented at white light in RT mode immediately (0 min), as well as at 5, 10, 15, 20, 30, 45, 60, 90, and 120 min, subsequently.
In HPTLC-XO inhibitory activity assay, the developed plate was dipped into a phosphate buffer solution containing xanthine and after incubation and drying was documented immediately (t = 0 min) and after 5, 10, 15, 20, 30, 45, 60, 90 and 120 min. Within this documentation interval, the plate was stored in the dark. The XO inhibitors were detected as white/yellow zones on a purple background (Figure 7).

[8] = spectrophotometric, 290 nm, n = 3, ± SD, N.d. = Not detected

T1 sequence (P80457 2-1332 limits assumed): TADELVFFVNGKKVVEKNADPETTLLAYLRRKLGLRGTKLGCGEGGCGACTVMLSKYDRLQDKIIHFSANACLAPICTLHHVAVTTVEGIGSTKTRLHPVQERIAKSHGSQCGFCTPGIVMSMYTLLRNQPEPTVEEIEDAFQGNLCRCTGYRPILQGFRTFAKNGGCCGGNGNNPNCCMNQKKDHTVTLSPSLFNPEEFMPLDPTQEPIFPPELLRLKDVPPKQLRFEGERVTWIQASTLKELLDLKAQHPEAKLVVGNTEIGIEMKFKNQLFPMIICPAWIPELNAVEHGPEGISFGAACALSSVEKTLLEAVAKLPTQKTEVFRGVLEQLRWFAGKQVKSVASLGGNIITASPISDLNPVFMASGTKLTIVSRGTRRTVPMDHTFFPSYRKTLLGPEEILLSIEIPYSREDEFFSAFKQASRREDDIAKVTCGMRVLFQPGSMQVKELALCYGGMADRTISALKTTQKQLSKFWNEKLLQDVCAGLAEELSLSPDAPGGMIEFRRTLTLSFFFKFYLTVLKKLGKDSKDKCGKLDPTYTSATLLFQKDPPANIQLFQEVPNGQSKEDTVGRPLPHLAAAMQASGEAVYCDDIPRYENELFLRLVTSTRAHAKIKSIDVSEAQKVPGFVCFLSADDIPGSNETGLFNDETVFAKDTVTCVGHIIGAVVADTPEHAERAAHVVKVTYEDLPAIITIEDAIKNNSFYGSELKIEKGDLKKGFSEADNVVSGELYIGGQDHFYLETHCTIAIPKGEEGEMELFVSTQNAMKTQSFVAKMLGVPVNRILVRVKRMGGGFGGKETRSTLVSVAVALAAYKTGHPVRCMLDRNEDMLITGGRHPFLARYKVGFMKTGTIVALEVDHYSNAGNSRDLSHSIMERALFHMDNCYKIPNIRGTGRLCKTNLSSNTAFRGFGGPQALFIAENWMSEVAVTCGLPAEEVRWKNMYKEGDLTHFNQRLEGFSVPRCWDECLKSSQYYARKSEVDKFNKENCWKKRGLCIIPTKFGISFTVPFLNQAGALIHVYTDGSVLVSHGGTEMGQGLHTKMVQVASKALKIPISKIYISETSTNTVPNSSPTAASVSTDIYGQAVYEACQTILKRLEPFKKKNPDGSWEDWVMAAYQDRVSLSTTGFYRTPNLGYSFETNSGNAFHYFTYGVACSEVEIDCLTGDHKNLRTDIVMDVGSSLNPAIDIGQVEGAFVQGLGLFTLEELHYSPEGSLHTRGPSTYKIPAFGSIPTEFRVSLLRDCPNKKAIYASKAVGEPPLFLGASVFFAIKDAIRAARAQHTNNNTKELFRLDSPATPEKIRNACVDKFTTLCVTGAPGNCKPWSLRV

SMILES	XO Inhibitory Activity IC50 (xanthine oxidase (XO) [4]; [8])	IC50 (xanthine oxidase (XO) [4]; [8])	XO inhibitory activity (in words) (xanthine oxidase (XO) [4])	HPTLC-DPPH intensity of yellow zone [1]	CUPRAC antioxidant activity [2]	FRAP antioxidant activity [3]	ABTS antioxidant activity (ABTS assay)	SOD Activity IC50 [5]	DPPH antioxidant activity [6]	HPTLC-XO zone detection (XO inhibitors as white/yellow zones on purple background) (xanthine oxidase (XO) [7])	SOD Activity IC50 ([5]; listed as allopurinol)	SOD activity (in words) ([5]; spectrophotometric assay)	time at which the XO inhibition zone appeared on the HPTLC plate (xanthine oxidase (XO) [7]; 8 µg on plate)
O=C(/C=C/c1ccc(O)c(O)c1)O[C@@H]1CC(O)(C(=O)O)C[C@@H](OC(=O)/C=C/c2ccc(O)c(O)c2)C1O (some centres unmarked) [3,5-Dicaffeoylquinic acid, 3,5-dicaffeoylquinic acid, reference compound]	17.47 ± 2.23 ^c µg/mL	–	–	slightly lower intensity	760.83 ± 12.84 ^b mg TE/g	542.36 ± 15.41 ^b mg TE/g	701.64 ± 13.63 ^b mg TE/g	5.87 ± 0.32 ^a µg/mL	665.53 ± 1.96 ^b mg TE/g	appeared immediately as yellow zones and lasted for 120 min	–	–	–
C[C@@H]1OC(Oc2c(-c3ccc(O)cc3)oc3cc(O)cc(O)c3c2=O)[C@H](O)[C@H](O)[C@H]1O (some centres unmarked) [Afzelin, kaempferol-3-O-rhamnopyranoside]	–	–	–	–	171.40 ± 8.24 ^e mg TE/g	58.54 ± 2.37 ^d mg TE/g	104.71 ± 0.25 ^e mg TE/g	20.61 ± 1.30 ^b µg/mL	149.35 ± 4.28 ^d mg TE/g	appeared immediately as yellow zones and lasted for 120 min	–	–	–
Oc1ncnc2[nH]ncc12 [Allopurinol, allopurinol, reference compound]	–	–	–	–	–	–	–	3.03 ± 0.10 ^a µg/mL	–	immediately as a white zone, which lasted for 120 min	3.0 µg/mL	–	–

Further lines, with some results ahead:

XO Inhibitory Activity IC50 (xanthine oxidase (XO) [4]; [8])	IC50 (xanthine oxidase (XO) [4]; [8])	XO inhibitory activity (in words) (xanthine oxidase (XO) [4])	SMILES	HPTLC-DPPH intensity of yellow zone [1]	CUPRAC antioxidant activity [2]	FRAP antioxidant activity [3]	ABTS antioxidant activity (ABTS assay)	SOD Activity IC50 [5]	DPPH antioxidant activity [6]	HPTLC-XO zone detection (XO inhibitors as white/yellow zones on purple background) (xanthine oxidase (XO) [7])	SOD Activity IC50 ([5]; listed as allopurinol)	SOD activity (in words) ([5]; spectrophotometric assay)	time at which the XO inhibition zone appeared on the HPTLC plate (xanthine oxidase (XO) [7]; 8 µg on plate)
–	35.8 µM	–	O=C(/C=C/c1ccc(O)c(O)c1)O[C@@H]1C[C@](O)(C(=O)O)C[C@@H](O)[C@H]1O [Chlorogenic acid, chlorogenic acid, reference compound]	–	–	–	–	–	–	appeared immediately as yellow zones and lasted for 120 min	–	–	–
–	–	no XO inhibitory activity	C[C@@H]1O[C@@H](Oc2c(-c3ccc(O)cc3)oc3cc(O)cc(O)c3c2=O)[C@H](OC(=O)/C=C/c2ccc(O)cc2)[C@H](OC(=O)/C=C/c2ccc(O)cc2)[C@H]1O [Platanoside]	–	213.68 ± 8.41 ^d mg TE/g	49.06 ± 0.91 ^de mg TE/g	173.15 ± 0.86 ^d mg TE/g	–	143.11 ± 1.31 ^d mg TE/g	weakest XO inhibition activity; also recorded: weak yellow zone	–	no SOD activity	20 min
–	117 µM	low XO inhibitory activity	O=c1c(O[C@@H]2O[C@H](CO)[C@H](O)[C@H](O)[C@H]2O[C@@H]2O[C@H](CO)[C@@H](O)[C@H](O)[C@H]2O)c(-c2ccc(O)c(O)c2)oc2cc(O)cc(O)c12 [quercetin 3-O-β-glucopyranosyl-(1→2)-β-galactopyranoside]	–	560.53 ± 14.74 ^c mg TE/g	227.30 ± 2.65 ^c mg TE/g	242.13 ± 5.88 ^c mg TE/g	5.09 ± 0.36 ^a µg/mL	400.21 ± 11.78 ^c mg TE/g	appeared immediately as yellow zones and lasted for 120 min	–	–	–
